Experimental data from PubChem BioAssay AID1963847 (Molecular Pharmacology Branch, DTP, NCI, 2024).

Tested on: 415267-285-R-J2-PDC complex spheroid viability
Assay: Anticancer human tumor 415267-285-R-J2-PDC patient-derived breast carcinoma cell line growth inhibition [POLQ]
Conditions: for IC50: curve of first compound; for viability, T/C: stronger effect = lower value
Procedure, shortened: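 Growth inhibition in 3D: complex spheroids (tumor PDC, HUVEC, MSC) treated with POLQ inhibitor combinations; where Cmax unknown, highest tested concentration 10 microM, except SN-38 at 1 microM.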

[1] = second compound 0.0316 µM, first compound 0.0316 µM
[2] = second compound 0.0316 µM, first compound 0.1 µM
[3] = second compound 0.0316 µM, first compound 0.316 µM
[4] = second compound 0.0316 µM, first compound 1 µM
[5] = second compound 0.1 µM, first compound 0.0316 µM
[6] = second compound 0.1 µM, first compound 0.1 µM
[7] = second compound 0.1 µM, first compound 0.316 µM
[8] = second compound 0.1 µM, first compound 1 µM
[9] = second compound 0.316 µM, first compound 0.0316 µM
[10] = second compound 0.316 µM, first compound 0.1 µM
[11] = second compound 0.316 µM, first compound 0.316 µM
[12] = second compound 0.316 µM, first compound 1 µM
[13] = second compound 1 µM, first compound 0.0316 µM
[14] = second compound 1 µM, first compound 0.1 µM
[15] = second compound 1 µM, first compound 0.316 µM
[16] = second compound 1 µM, first compound 1 µM
[17] = second compound 3.16 µM, first compound 0.0316 µM
[18] = second compound 3.16 µM, first compound 0.1 µM
[19] = second compound 3.16 µM, first compound 0.316 µM
[20] = second compound 3.16 µM, first compound 1 µM
[21] = second compound 10 µM, first compound 0.0316 µM
[22] = second compound 10 µM, first compound 0.1 µM
[23] = second compound 10 µM, first compound 0.316 µM
[24] = second compound 10 µM, first compound 1 µM
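Also: spheroids exposed to compounds for one week before readout.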
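For viability, T/C in this document: luminescence used as stand-in measure of viable cells; 100% = DMSO vehicle control viability.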

Compound C=CCn1c(=O)c2cnc(Nc3ccc(N4CCN(C)CC4)cc3)nc2n1-c1cccc(C(C)(C)O)n1 + COC1C(OC(N)=O)C(O)C(Oc2ccc3c(O)c(NC(=O)c4ccc(O)c(CC=C(C)C)c4)c(=O)oc3c2C)OC1(C)C has an IC50 (second compound 0.0316 µM) of 347 nM, an IC50 (second compound 0.1 µM) of 269 nM and an IC50 (second compound 0.316 µM) of 262 nM. For the same compound, the IC50 (second compound 1 µM) was 269 nM, the IC50 (second compound 3.16 µM) was 249 nM and the IC50 (second compound 10 µM) was 267 nM. It also gave a viability, T/C (second compound 0.0316 µM, first compound 0.00316 µM) of 106%, a viability, T/C (second compound 0.0316 µM, first compound 0.01 µM) of 96.1% and a viability, T/C [1] of 105%. For the same compound, the viability, T/C [2] was 101%, the viability, T/C [3] was 53.7% and the viability, T/C [4] was 7.91%. The viability, T/C (second compound 0.1 µM, first compound 0.00316 µM) was 96%, the viability, T/C (second compound 0.1 µM, first compound 0.01 µM) was 95.3% and the viability, T/C [5] was 101%. It also gave a viability, T/C [6] of 99.1%, a viability, T/C [7] of 42.1% and a viability, T/C [8] of 7.89%. The viability, T/C (second compound 0.316 µM, first compound 0.00316 µM) was 114%, the viability, T/C (second compound 0.316 µM, first compound 0.01 µM) was 110% and the viability, T/C [9] was 100%. For the same compound, the viability, T/C [10] was 116%, the viability, T/C [11] was 38.1% and the viability, T/C [12] was 7.25%. For the same compound, the viability, T/C (second compound 1 µM, first compound 0.00316 µM) was 105%, the viability, T/C (second compound 1 µM, first compound 0.01 µM) was 119% and the viability, T/C [13] was 95.8%. It also gave a viability, T/C [14] of 89.9%, a viability, T/C [15] of 42.9% and a viability, T/C [16] of 7.39%. The viability, T/C (second compound 3.16 µM, first compound 0.00316 µM) was 111%, the viability, T/C (second compound 3.16 µM, first compound 0.01 µM) was 101% and the viability, T/C [17] was 103%. It also gave a viability, T/C [18] of 95.9%, a viability, T/C [19] of 38.1% and a viability, T/C [20] of 8.1%. The viability, T/C (second compound 10 µM, first compound 0.00316 µM) was 112%, the viability, T/C (second compound 10 µM, first compound 0.01 µM) was 93.9% and the viability, T/C [21] was 106%. It also gave a viability, T/C [22] of 97.9%, a viability, T/C [23] of 41.7% and a viability, T/C [24] of 9.2%.
Work on COc1cc(C2c3cc4c(cc3C(OC3OC5COC(C)OC5C(O)C3O)C3COC(=O)C23)OCO4)cc(OC)c1O (centres undefined) + COC1C(OC(N)=O)C(O)C(Oc2ccc3c(O)c(NC(=O)c4ccc(O)c(CC=C(C)C)c4)c(=O)oc3c2C)OC1(C)C yielded an IC50 (second compound 0.0316 µM) of 155 nM, an IC50 (second compound 0.1 µM) of 156 nM and an IC50 (second compound 0.316 µM) of 149 nM. The IC50 (second compound 1 µM) was 153 nM, the IC50 (second compound 3.16 µM) was 166 nM and the IC50 (second compound 10 µM) was 163 nM. The viability, T/C [1] was 88.3%, the viability, T/C [2] was 72.4% and the viability, T/C [3] was 13.8%. It also gave a viability, T/C [4] of 8.42%, a viability, T/C (second compound 0.0316 µM, first compound 3.16 µM) of 5.21% and a viability, T/C (second compound 0.0316 µM, first compound 10 µM) of 6.94%. For the same compound, the viability, T/C [5] was 97.4%, the viability, T/C [6] was 72.1% and the viability, T/C [7] was 14.5%. For the same compound, the viability, T/C [8] was 8.54%, the viability, T/C (second compound 0.1 µM, first compound 3.16 µM) was 5.95% and the viability, T/C (second compound 0.1 µM, first compound 10 µM) was 5.76%. It also gave a viability, T/C [9] of 97.7%, a viability, T/C [10] of 69.6% and a viability, T/C [11] of 12.8%. The viability, T/C [12] was 8.42%, the viability, T/C (second compound 0.316 µM, first compound 3.16 µM) was 5.87% and the viability, T/C (second compound 0.316 µM, first compound 10 µM) was 6.37%. For the same compound, the viability, T/C [13] was 98.3%, the viability, T/C [14] was 71.6% and the viability, T/C [15] was 13.1%. It also gave a viability, T/C [16] of 7.07%, a viability, T/C (second compound 1 µM, first compound 3.16 µM) of 6.69% and a viability, T/C (second compound 1 µM, first compound 10 µM) of 5.99%. It also gave a viability, T/C [17] of 87.1%, a viability, T/C [18] of 75.9% and a viability, T/C [19] of 17%. For the same compound, the viability, T/C [20] was 8.05%, the viability, T/C (second compound 3.16 µM, first compound 3.16 µM) was 5.46% and the viability, T/C (second compound 3.16 µM, first compound 10 µM) was 6.77%. It also gave a viability, T/C [21] of 101%, a viability, T/C [22] of 75.6% and a viability, T/C [23] of 15.3%. For the same compound, the viability, T/C [24] was 8.14%, the viability, T/C (second compound 10 µM, first compound 3.16 µM) was 6.45% and the viability, T/C (second compound 10 µM, first compound 10 µM) was 5.77%.
